{"source": "patent US20110152099A1", "about": "“BIOACTIVE COMPOUNDS OF ASCOPHYLLUM NODOSUM AND THEIR USE FOR ALLEVIATING SALT-INDUCED STRESS IN PLANTS” (priority 2008, published 2011)", "system": "plants under salt stress", "experiment": "Root length under salt stress", "type": "in vivo", "conditions": "compared to +Na untreated plants", "text": "The code numbers in FIG. 18 refer to different organic extracts."}
{"smiles": "C/C=C(/CCC(C)C1CCC2C3CC=C4CC(O)CCC4(C)C3CCC12C)C(C)C", "note": "(stereo not shown) [fucosterol, 24-ethylidene cholesterol]", "values": [{"measurement": "root length", "result": "longer root length"}]}
